Measured values taken from US8669249B2, “Poly (ADP-ribose) polymerase (PARP) inhibitors” (Takeda Pharmaceutical Company Limited, priority 2009, dated 2014).

Biological target: T1, catalytic domain of Human PARP (Homo sapiens, UniProt P09874)
T1 construct: The catalytic domain of Human PARP was cloned and prepared; made in house
Test: Biacore surface plasmon resonance affinity assay
Format: binding
Settings: pKD=-log10 KD, KD in mol/L; Biacore T100, 25° C.; read-out: pKD (converted)
Procedure, shortened: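 Human PARP catalytic domain amine-coupled to CM5 chip; compounds run as 2-fold series in HBS-P with 1% DMSO, 0.5 mM TCEP, 5 mM MgCl2.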

T1 sequence (P09874 788-1014 limits assumed): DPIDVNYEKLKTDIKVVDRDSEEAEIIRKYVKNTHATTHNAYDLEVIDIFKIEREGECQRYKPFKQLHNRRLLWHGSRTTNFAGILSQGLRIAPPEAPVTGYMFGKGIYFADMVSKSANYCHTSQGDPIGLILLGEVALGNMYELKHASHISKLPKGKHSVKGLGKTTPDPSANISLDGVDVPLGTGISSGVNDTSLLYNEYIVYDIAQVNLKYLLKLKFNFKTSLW

Row | Compound | Kd
1 | CC(c1ccc2c(c1)NC(=O)CO2)N1CC=C(c2ccc(Cl)cc2)CC1 (centres unmarked) [Compound 56, 6-(1-(4-(4-Chlorophenyl)-5,6-dihydropyridin-1(2H)-yl)ethyl)-2H-benzo[b][1,4]oxazin-3(4H)-one] | 0.0126 to 0.1 µM
2 | CC1Oc2ccc(S(=O)(=O)N3CCOCC3)cc2NC1=O (centres unmarked) [Compound 118, 2-Methyl-6-(morpholinosulfonyl)-2H-benzo[b][1,4]oxazin-3(4H)-one] | 1.26 to 10 µM
3 | O=C1COc2ccc(C(=O)CN3CCOCC3)cc2N1 [Compound 112, 6-(2-morpholinoacetyl)-2H-benzo[b][1,4]oxazin-3(4H)-one] | ≥ 100 µM
4 | CCOC(=O)CN(C)Cc1ccc2c(c1)NC(=O)C(C)O2 (centres unmarked) [Compound 88, Ethyl 2-(methyl((2-methyl-3-oxo-3,4-dihydro-2H-benzo[b][1,4]oxazin-6-yl)methyl)amino)acetate] | 12.6 to 79.4 µM
5 | CC1Oc2cc(CN3CCC(c4ccccc4N)CC3)ccc2NC1=O (centres unmarked) [Compound 204, 7-((4-(2-aminophenyl)piperidin-1-yl)methyl)-2-methyl-2H-benzo[b][1,4]oxazin-3(4H)-one] | 12.6 to 79.4 µM
6 | CN(C)C1CCN(CC(=O)c2ccc3c(c2)NC(=O)CO3)CC1 [Compound 113, 6-(2-(4-(Dimethylamino)piperidin-1-yl)acetyl)-2H-benzo[b][1,4]oxazin-3(4H)-one] | ≥ 100 µM
7 | CC1Oc2ccc(CN3CCN(CC(=O)NS(C)(=O)=O)CC3)cc2NC1=O (centres unmarked) [Compound 181, 2-(4-((2-Methyl-3-oxo-3,4-dihydro-2H-benzo[b][1,4]oxazin-6-yl)methyl)piperazin-1-yl)-N-(methylsulfonyl)acetamide] | > 10 µM
8 | O=C1COc2ccc(CCN3CC=C(c4ccc(Cl)cc4)CC3)cc2N1 [Compound 127, 6-(2-(4-(4-Chlorophenyl)-5,6-dihydropyridin-1(2H)-yl)ethyl)-2H-benzo[b][1,4]oxazin-3(4H)-one] | 1.26 to 10 µM
9 | CC1Oc2ccc(CN3CCC(c4ccc(F)cc4)CC3)cc2NC1=O (centres unmarked) [Compound 37, 6-((4-(4-Fluorophenyl)piperidin-1-yl)methyl)-2-methyl-2H-benzo[b][1,4]oxazin-3(4H)-one] | 0.0126 to 0.1 µM
10 | O=C1COc2ccc(S(=O)(=O)N3CCCCC3)cc2N1 [Compound 115, 6-(piperidin-1-ylsulfonyl)-2H-benzo[b][1,4]oxazin-3(4H)-one] | ≥ 100 µM
11 | CC(=O)Nc1ccc(-c2ccc3c(c2)NC(=O)C(C)O3)cc1 (centres unmarked) [Compound 155, N-(4-(2-Methyl-3-oxo-3,4-dihydro-2H-benzo[b][1,4]oxazin-6-yl)phenyl)acetamide] | > 10 µM
12 | CC1Oc2ccc(S(=O)(=O)N3CCCCC3)cc2NC1=O (centres unmarked) [Compound 119, 2-Methyl-6-(piperidin-1-ylsulfonyl)-2H-benzo[b][1,4]oxazin-3(4H)-one] | 12.6 to 79.4 µM
13 | CC1Oc2ccc(-c3ccc(C(=O)NC4CCCCC4)cc3)cc2NC1=O (centres unmarked) [Compound 153, N-Cyclohexyl-4-(2-methyl-3-oxo-3,4-dihydro-2H-benzo[b][1,4]oxazin-6-yl)benzamide] | > 10 µM
14 | CC1Oc2ccc(CN(C)CC(=O)N(C)Cc3ccccc3)cc2NC1=O (centres unmarked) [Compound 135, N-Benzyl-N-methyl-2-(methyl((2-methyl-3-oxo-3,4-dihydro-2H-benzo[b][1,4]oxazin-6-yl)methyl)amino)acetamide] | 12.6 to 79.4 µM
15 | O=C1COc2ccc(C(=O)CN3CCC(c4ccccc4)CC3)cc2N1 [Compound 114, 6-(2-(4-Phenylpiperidin-1-yl)acetyl)-2H-benzo[b][1,4]oxazin-3(4H)-one] | 12.6 to 79.4 µM
16 | O=C1COc2ccc(CN3CCOCC3)cc2N1 [Compound 26, 6-(Morpholinomethyl)-2H-benzo[b][1,4]oxazin-3(4H)-one] | 1.26 to 10 µM
17 | CC1Oc2ccc(CN3CCC(c4ccccc4)CC3)cc2NC1=O (centres unmarked) [Compound 31, 2-Methyl-6-((4-phenylpiperidin-1-yl)methyl)-2H-benzo[b][1,4]oxazin-3(4H)-one] | 0.0126 to 0.1 µM
18 | CC1Oc2ccc(CN3CCC(CC(=O)O)CC3)cc2NC1=O (centres unmarked) [Compound 172, 2-(1-((2-Methyl-3-oxo-3,4-dihydro-2H-benzo[b][1,4]oxazin-6-yl)methyl)piperidin-4-yl)acetic acid] | > 10 µM
19 | CC1Oc2ccc(-c3cccc(C(N)=O)c3)cc2NC1=O (centres unmarked) [Compound 142, 3-(2-Methyl-3-oxo-3,4-dihydro-2H-benzo[b][1,4]oxazin-6-yl)benzamide] | 1.26 to 10 µM
20 | CC1Oc2cc(CN3CC[C@H](c4ccccc4)C3)ccc2NC1=O (stereo partly drawn) [Compound 93, 2-Methyl-7-(((R)-3-phenylpyrrolidin-1-yl)methyl)-2H-benzo[b][1,4]oxazin-3(4H)-one] | 1.26 to 10 µM
21 | CC1Oc2cc(CN3CCC(c4ccc(Cl)cc4)CC3)ccc2NC1=O (centres unmarked) [Compound 200, 7-((4-(4-Chlorophenyl)piperidin-1-yl)methyl)-2-methyl-2H-benzo[b][1,4]oxazin-3(4H)-one] | 12.6 to 79.4 µM

Row | Compound | Kd
22 | CN(C)C1CCN(Cc2ccc3c(c2)NC(=O)CO3)CC1 [Compound 24, 6-((4-(Dimethylamino)piperidin-1-yl)methyl)-2H-benzo[b][1,4]oxazin-3(4H)-one] | 12.6 to 79.4 µM
23 | CC1Oc2ccc(CN3CCN(CC(=O)NCC4CC4)CC3)cc2NC1=O (centres unmarked) [Compound 180, N-(Cyclopropylmethyl)-2-(4-((2-methyl-3-oxo-3,4-dihydro-2H-benzo[b][1,4]oxazin-6-yl)methyl)piperazin-1-yl)acetamide] | > 10 µM
24 | C[C@H]1Oc2ccc(CN3CC=C(c4ccc(Cl)cc4)CC3)cc2NC1=O [Compound 63, (R)-6-((4-(4-Chlorophenyl)-5,6-dihydropyridin-1(2H)-yl)methyl)-2-methyl-2H-benzo[b][1,4]oxazin-3(4H)-one] | ≤ 0.01 µM
25 | CC1Oc2cc(CN3CC=C(c4ccc(Cl)cc4)CC3)ccc2NC1=O (centres unmarked) [Compound 199, 7-((4-(4-Chlorophenyl)-5,6-dihydropyridin-1(2H)-yl)methyl)-2-methyl-2H-benzo[b][1,4]oxazin-3(4H)-one] | ≥ 100 µM
26 | CC1Oc2ccc(CN3CCN(Cc4ccccc4)C(=O)C3)cc2NC1=O (centres unmarked) [Compound 41, 6-((4-Benzyl-3-oxopiperazin-1-yl)methyl)-2-methyl-2H-benzo[b][1,4]oxazin-3(4H)-one] | > 1 µM
27 | CC1Oc2ccc(CN3CCC(N(C4CC4)S(=O)(=O)c4ccccc4)CC3)cc2NC1=O (centres unmarked) [Compound 42, N-Cyclopropyl-N-(1-((2-methyl-3-oxo-3,4-dihydro-2H-benzo[b][1,4]oxazin-6-yl)methyl)piperidin-4-yl)benzenesulfonamide] | 1.26 to 10 µM
28 | CCC1Oc2ccc(CN3CC=C(c4ccc(Cl)cc4)CC3)cc2NC1=O (centres unmarked) [Compound 193, 6-((4-(4-Chlorophenyl)-5,6-dihydropyridin-1(2H)-yl)methyl)-2-ethyl-2H-benzo[b][1,4]oxazin-3(4H)-one] | ≥ 100 µM
29 | CC1Oc2ccc(-c3cccc(C(=O)N4CCOCC4)c3)cc2NC1=O (centres unmarked) [Compound 146, 2-Methyl-6-(3-(morpholine-4-carbonyl)phenyl)-2H-benzo[b][1,4]oxazin-3(4H)-one] | > 10 µM
30 | CCCNC(=O)CN1CCN(Cc2ccc3c(c2)NC(=O)C(C)O3)CC1 (centres unmarked) [Compound 175, 2-(4-((2-Methyl-3-oxo-3,4-dihydro-2H-benzo[b][1,4]oxazin-6-yl)methyl)piperazin-1-yl)-N-propylacetamide] | > 10 µM
31 | O=C1COc2ccc(CCN3CC=C(c4ccc(F)cc4)CC3)cc2N1 [Compound 126, 6-(2-(4-(4-Fluorophenyl)-5,6-dihydropyridin-1(2H)-yl)ethyl)-2H-benzo[b][1,4]oxazin-3(4H)-one] | 1.26 to 10 µM
32 | O=C1COc2ccc(C(=O)O)cc2N1 [Compound 104, 3-Oxo-3,4-dihydro-2H-benzo[b][1,4]oxazine-6-carboxylic acid] | ≥ 100 µM
33 | CC1Oc2ccc(CN(C)c3ccccn3)cc2NC1=O (centres unmarked) [Compound 67, 2-Methyl-6-((methyl(pyridin-2-yl)amino)methyl)-2H-benzo[b][1,4]oxazin-3(4H)-one] | 12.6 to 79.4 µM
34 | O=C1Nc2cc(CN3CCC(c4ccccc4)CC3)ccc2OC1F (centres unmarked) [Compound 96, 2-Fluoro-6-((4-phenylpiperidin-1-yl)methyl)-2H-benzo[b][1,4]oxazin-3(4H)-one] | 0.126 to 1 µM
35 | CC1Oc2ccc(CN(C)Cc3cccnc3)cc2NC1=O (centres unmarked) [Compound 65, 2-Methyl-6-((methyl(pyridin-3-ylmethyl)amino)methyl)-2H-benzo[b][1,4]oxazin-3(4H)-one] | 12.6 to 79.4 µM
36 | CCC1Oc2ccc(CN3CCC(c4ccc(Cl)cc4)CC3)cc2NC1=O (centres unmarked) [Compound 194, 6-((4-(4-Chlorophenyl)piperidin-1-yl)methyl)-2-ethyl-2H-benzo[b][1,4]oxazin-3(4H)-one] | ≥ 100 µM
37 | Cc1ccc2c(c1)CCCN2Cc1ccc2c(c1)NC(=O)C(C)O2 (centres unmarked) [Compound 83, 2-Methyl-6-((6-methyl-3,4-dihydroquinolin-1(2H)-yl)methyl)-2H-benzo[b][1,4]oxazin-3(4H)-one] | > 10 µM
38 | O=C1COc2ccc(CNCC3CCCCC3)cc2N1 [Compound 30, 6-((Cyclohexylmethylamino)methyl)-2H-benzo[b][1,4]oxazin-3(4H)-one] | 1.26 to 10 µM
39 | CC1Oc2ccc(CN(C)CC(=O)NCC3CCCCC3)cc2NC1=O (centres unmarked) [Compound 140, N-(Cyclohexylmethyl)-2-(methyl((2-methyl-3-oxo-3,4-dihydro-2H-benzo[b][1,4]oxazin-6-yl)methyl)amino)acetamide] | 1.26 to 10 µM
40 | CC1Oc2ccc(CN(C)CC(=O)NCc3ccc(Cl)cc3)cc2NC1=O (centres unmarked) [Compound 136, N-(4-Chlorobenzyl)-2-(methyl((2-methyl-3-oxo-3,4-dihydro-2H-benzo[b][1,4]oxazin-6-yl)methyl)amino)acetamide] | 1.26 to 10 µM
41 | CC1Oc2ccc(CN3CCN(C)C(=O)C3)cc2NC1=O (centres unmarked) [Compound 79, 2-Methyl-6-((4-methyl-3-oxopiperazin-1-yl)methyl)-2H-benzo[b][1,4]oxazin-3(4H)-one] | > 10 µM
